According to the NIST ThermoML archive (doi:10.1016/j.jct.2012.05.006):

Details: 101.33 kPa, Liquid, Vibrating tube method

CCCCCCCC[n+]1ccn(C)c1.N#C[S-] [1-methyl-3-octyl-1H-imidazolium thiocyanate]
Details | mass density [kg/m3]
288.15 K | 1014
293.15 K | 1011.1
298.15 K | 1008.3
303.15 K | 1005.4
308.15 K | 1002.6
313.15 K | 999.7
318.15 K | 996.7
323.15 K | 994.1
328.15 K | 991.3
333.15 K | 988.4
338.15 K | 985.6
343.15 K | 982.9
